In USRE39682E1, “Farnesyl derivatives and pharmaceutical compositions containing them” (Ramot at Tel Aviv University Ltd., priority 1993, dated 2007):

How the values were obtained:
[1] = target: T1, PPMTase (Rattus norvegicus, UniProt Q9WVM4); test: PPMTase activity (AFC methylation) in membranes of ras-transformed rat1 cells; type: biochemical; conditions: ras-transformed rat fibroblast membranes; for PPMTase activity: with inhibitor
T1 construct: PPMTase activity in membranes obtained from four different cell lines as determined by methylation of AFC; endogenous in cells; host or cells: ras-transformed rat1 (EJ) cell membranes
T1 sequence (Q9WVM4 whole entry): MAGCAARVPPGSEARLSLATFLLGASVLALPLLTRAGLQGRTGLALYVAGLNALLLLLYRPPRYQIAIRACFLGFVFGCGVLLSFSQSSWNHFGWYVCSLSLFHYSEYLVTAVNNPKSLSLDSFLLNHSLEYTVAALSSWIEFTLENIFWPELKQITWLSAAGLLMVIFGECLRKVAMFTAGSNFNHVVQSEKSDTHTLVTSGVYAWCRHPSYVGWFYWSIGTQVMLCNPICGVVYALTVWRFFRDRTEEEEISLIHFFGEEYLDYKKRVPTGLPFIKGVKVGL
Procedure: (§1) Charles River adult male rats were used for preparation of cerebellar synaptosomal membranes. Cerebella were removed after decapitation and homogenized in 0.32M sucrose containing 50 mM Tris-HCl pH 7.4, 3 mM EDTA, 1 mM EGTA, 5 unit/ml aprotinin and 5 μg/ml pepstatin (buffer A) to yield 10% (w/v) homogenates. Nuclear fractions were obtained by 10 min. 600×g centrifugation and synaptosomal fractions were obtained by 20 mins. 14,500×g centrifugation. Membranes of the various cell types used were prepared in the above buffer A by a 60 min. spin at 100,000×g.
(§2) Pellets were resuspended in the homogenization buffer and stored at −70° C. Methylation assays were performed at 37° C. in 50 mM Tris-HCl buffer pH 7.4, using 75-125 μg protein, 25 μM [methyl-^3H]AdoMet ([…]) as a methyl donor and 150 μM AFC as a methylation substrate (prepared as a stock solution in DMSO) in a total volume of 50 μl. DMSO concentration in all assays was 4%.
(§3) Reactions were terminated after 10 min. by adding 500 μl chloroform methanol (1:1) and a subsequent addition of 250 μl H2O, mixing them and subsequently by phase separation. A portion of 125 μl of the chloroform phase was dried down at 40° C. and 200 μl of 1M NaOH/1% SDS solution were added thereto. The [^3H]methanol thus formed was counted by the vapor phase equilibrium method as described previously (Hakiai et al., Cell Mol. Neurobiol., 11, 415-431, (1991); Lenner et al., Cell Mol. Neurbiol., 12, 333 and 3351, (1992); Ben-Baruch et al., Biochem. Biophy. Res. Commun., 195, 282-288, (1993)). Typical background counts (i.e. counts of methylation with no AFC added) were 50-100 cpm while typical methylation counts with AFC as a substrate yielded 500 to 6000 cpm. Assays were performed in triplicate and background counts subtracted. Methylation of endogenous substrates, in intact cells, and [α-^32P] GTP-blot overlay assays and gel electrophoreses were performed as detailed previously (Hakiai et al., supra (1991); Lenner et al., supra (1993)).
(§4) The B16F10 melanoma cells were grown in RPMI 1640/10% fetal calf serum, 2 mM glutamine and antibiotics as for the HEC1A cells, at the density of 1×10^4 cells/well. All four types of cells were used for determining the PPMTase activity using AFC as the substrate as described above for synaptosomal membrane preparation. Usually 150 μg membranal proteins were used in the assay for a 10 min. incubation time.

[2] = target: T2, PPMTase (Mus musculus, UniProt Q9EQK7); test: PPMTase activity (AFC methylation) in membranes of B16F10 melanoma cells; type: biochemical; conditions: for PPMTase activity: with inhibitor
T2 construct: PPMTase activity in membranes obtained from four different cell lines as determined by methylation of AFC; endogenous in cells; host or cells: B16F10 melanoma cell membranes
T2 sequence (Q9EQK7 whole entry): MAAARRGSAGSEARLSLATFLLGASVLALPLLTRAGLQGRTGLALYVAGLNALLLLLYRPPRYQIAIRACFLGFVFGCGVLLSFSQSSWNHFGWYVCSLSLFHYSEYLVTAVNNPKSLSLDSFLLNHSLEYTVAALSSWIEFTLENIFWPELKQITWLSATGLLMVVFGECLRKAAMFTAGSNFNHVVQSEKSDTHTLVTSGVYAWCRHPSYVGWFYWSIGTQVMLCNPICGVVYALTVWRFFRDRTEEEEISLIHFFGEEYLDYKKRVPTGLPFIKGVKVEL
Procedure: as §1, §2, §3, §4

[3] = tested on: PPMTase activity in intact HEC1A, ras-transformed rat1 and melanoma cells; test: Methylation of endogenous 21-24 KDa GTP-binding proteins in intact cells ([methyl-3H]methionine labelling); type: cell-based; conditions: 100 μM, FIG. 3
Procedure: as §3
HEC1A, rail, ras-transformed rail and B16F10 melanoma cells were also used for metabolic labelling of endogenous proteins with 100-300 μCi/ml [methyl-^3H]methionine which was also indicative of PPMTase activity. […]

Row | Compound | % Inhibition [1] [%] | PPMTase activity [1] [pmol/min/mg protein] | % Inhibition [2] [%] | PPMTase activity [2] [pmol/min/mg protein] | inhibition of methylation of endogenous 21-24 KDa proteins [3]
1 | CC(C)=CCC/C(C)=C/CC/C(C)=C/CSCC(=O)O [FTA, S-trans, trans-farnesylthioacetic acid, reference compound] | 72 | 1.9 | 38 | 1.3 | able to inhibit
2 | CC(C)=CCC/C(C)=C/CC/C(C)=C/CSc1ccccc1C(=O)O [FTS, (3,7,11-trimethyl-dodeca-2,6,10-trienyl)-2-thiobenzoic acid] | 73 | 1.8 | 50 | 1.7 | able to inhibit
